Consider two compounds from patent US10231958B2, “Methods and compositions for enhancing chemotherapy” (THE BOARD OF REGENTS OF THE UNIVERSITY OF TEXAS SYSTEM, priority 2015, dated 2019).

Entries after “also recorded” stand apart in the source; their conditions may differ.

Experiment [1] deals with MDA-MB231 xenograft implants. Description: MDA-MB231 xenograft study. Type of experiment: in vivo, mouse. From the text:
The study was approved by the University of Texas Health Science Center at San Antonio Institutional Animal Care and Use Committee (IACUC) policy as outlined in protocol number 11024. The facility is operated in compliance with the Public Law 89-544 (Animal Welfare Act) and its amendments, Public Health Services Policy on Humane Care and Use of Laboratory Animals (PHS Policy) using the Guide for the Care and Use of Laboratory Animals (Guide) as the basis of operation. Selection of cyclophosphamide and sorafenib doses was based on previously published reports (Sun et al., 2010, J Int Med Res 38, 967-76; Wilhelm et al., 2004 Cancer Res 64, 7099-109). MDA-MB-231 cells were harvested by trypsinization, washed and re-suspended in serum-free medium. Thereafter, cells were mixed with matrigel (1:1), and approximately 5×10^6 cells were subcutaneously injected in the right flank of each mouse. When the average tumor volume reached about 100 mm^3, mice were randomized into groups of 8 animals each, and the following treatment protocol was implemented: Group 1 (control): 100 μL of saline (i.p.); Group 2: sorafenib (1 mg/kg; i.p.) for 9 days; Group 3: cyclophosphamide 0.1 g/kg on days 2, 4, 6 and 8; Group 4: Sorafenib+cyclophosphamide (combination of same above described regimens). All animals were sacrificed 5 days after the end of treatments (15th day of the treatment protocol). Body weight of mice was recorded weekly, and tumor size was measured thrice a week in two dimensions using a digital caliper. The tumor volume was calculated by the formula 0.5236 L1(L2)^2, where L1 is the long axis, and L2 is the short axis of the tumor. At the termination of the study, mice were euthanized; tumors were excised and a part was fixed in 10% phosphate-buffered formalin for H&E, Masson's staining and immunohistochemistry (IHC) analyses.

For experiment [2], the system named is MDA-MB231 cells. Description: Gene expression profiling (RNAseq) in MDA-MB231 cells. It counts as cell-based, human. On the procedure: Human cancer cell-lines treated with different pharmaceutical compounds were profiled by RNA-seq protocol using Illumina HiSeq 2000 system (Illumina, San Diego, Calif.). RNA was harvested 0, 8 and 24 hours post treatment using the RNeasy protocol (Qiagen) and the purity of prepared RNA was determined using Agilent 2100 BioAnalyzer. Total RNA samples about […] were used for sequencing library preparation according to Illumina TruSeq Total RNA Sample Preparation Guide (Illumina Cat. #: RS-122-2201). Each library was bar-coded and then pooled for cluster generation and sequencing run with 100 bp paired-end (PE) sequencing protocol. Short read sequences from RNAseq were first aligned to UCSC hg19 genome build using TopHat2 algorithm (PMID:19289445) and then quantified for gene expression by HTSeq [Anders, 2014]. Genes with lower read counts (determined by examining read counts in non-exonic regions) were removed. Differential expression more than 2 fold was selected as differentially expressed genes (DEGs).
For those genes for which expression was higher than noise/background, significant change in expression compared to unexposed (0 h) control, ±2-fold change, was used as cut-off for induction/repression. The lists of genes with altered expression were analyzed using Ingenuity Systems (IPA, Ingenuity Pathway Analyzer, Qiagen), DAVID (PMID:19131956; PMID: 19033363), and Rock Breast Cancer Functional Genomic Database (PMID:20563840) analytical software (p<0.05; FDR<10%) to ensure a good coverage of both metabolic and transduction pathways (due to differences in pathways libraries with the databases). Only pathways related to biological processes/signaling were considered relevant, and the terms were grouped by similarity of the biological for presentation; disease related pathways were discarded. Transcription factor enrichment analysis was performed using the TFactS software (PMID:20215436), which uses an algorithm to compare potential transcription factors involved in the regulation of genes with the input lists. […]

The subject of experiment [3] is protein sulfhydryl (protein-SH) groups. Put plainly: Protein sulfhydryl groups (dibromobimane assay). It counts as cell-based. To be noted: 12 h treatment. How it is done: Protein reduced thiol groups (Protein-SH) were measured by dibromobimane assays with minor modifications (PMID:20463849). The 6-well plated cells (500,000 cells) were scraped in 0.6 mL PBS and 200 μL Perchloric acid (6 N) was added to precipitate proteins. The samples were incubated for 5 min in ice, centrifuged (14,000×g) Supernatants containing small peptides and glutathione were discarded and pellets were resuspended in 100 μL NaOH 0.1N, neutralized with 100 μL ice cold Perchloric acid (0.1 N), and 0.1 N PBS was added to keep pH constant. A stock solution of 4 mM dibromobimane in DMSO was added to a final concentration 40 μM, and incubated for 30 30 min at 37° C. Dibromobimane-protein fluorescence was measured at Ex=393 and, Em=477 nm.

In the case of `CNC(=O)c1cc(Oc2ccc(NC(=O)Nc3ccc(Cl)c(C(F)(F)F)c3)cc2)ccn1` [sorafenib, 4-[4-[[4-chloro-3-(trifluoromethyl)phenyl]carbamoylamino]phenoxy]-N-methyl-pyridine-2-carboxamide], in experiment [1] (sorafenib 1 mg/kg i.p. 9 days, cyclophosphamide 0.1 g/kg days 2, 4, 6, 8), the “tumor growth, single agent” value is given as “significantly decrease tumor growth”. In addition, the “tumor growth, combination with cyclophosphamide” value in experiment [1] (sorafenib 1 mg/kg i.p. plus cyclophosphamide 0.1 g/kg) is on record as “synergize with cyclophosphamide”. In addition, the “tumor volume at which growth was stabilized” value in experiment [1] (sorafenib alone, 7 days of treatment) was around 150 mm^3. Further, the “effect on cyclophosphamide-induced angiogenic response” value in experiment [1] (sorafenib combined with cyclophosphamide) is given as “significant inhibition of cyclophosphamide-induced angiogenic response; also recorded: blocked cyclophosphamide-induced vessels formation”. For the same compound, in experiment [2] (5 μM sorafenib), the “effect on NRF2 and UPR genes” value is reported as “lack of effect”; the “effect on basal gene expression (VEGFA, HES1, MAML3, PLAT, ADAMST1)” value is “decreased basal expression of several genes”. Moreover, the “effect on MMS-induced inflammatory/invasive genes” value in experiment [2] (5 μM sorafenib plus MMS) was “blocked several of the aforementioned MMS-induced inflammatory/invasive genes”.

In the case of `COS(C)(=O)=O` [MMS, methyl-methanesulfonate], in experiment [3], the protein sulfhydryl residues entry is “deplete protein sulfhydryl residues”.
